Target: DNA (cytosine-5)-methyltransferase 1 (Homo sapiens, UniProt P26358)
Assay: inhibition of DNA methylation by DNMT1 – biochemical, fluorescent molecular beacon, confirmation (AID 602386)

Sequence of DNA (cytosine-5)-methyltransferase 1 (P26358 whole entry): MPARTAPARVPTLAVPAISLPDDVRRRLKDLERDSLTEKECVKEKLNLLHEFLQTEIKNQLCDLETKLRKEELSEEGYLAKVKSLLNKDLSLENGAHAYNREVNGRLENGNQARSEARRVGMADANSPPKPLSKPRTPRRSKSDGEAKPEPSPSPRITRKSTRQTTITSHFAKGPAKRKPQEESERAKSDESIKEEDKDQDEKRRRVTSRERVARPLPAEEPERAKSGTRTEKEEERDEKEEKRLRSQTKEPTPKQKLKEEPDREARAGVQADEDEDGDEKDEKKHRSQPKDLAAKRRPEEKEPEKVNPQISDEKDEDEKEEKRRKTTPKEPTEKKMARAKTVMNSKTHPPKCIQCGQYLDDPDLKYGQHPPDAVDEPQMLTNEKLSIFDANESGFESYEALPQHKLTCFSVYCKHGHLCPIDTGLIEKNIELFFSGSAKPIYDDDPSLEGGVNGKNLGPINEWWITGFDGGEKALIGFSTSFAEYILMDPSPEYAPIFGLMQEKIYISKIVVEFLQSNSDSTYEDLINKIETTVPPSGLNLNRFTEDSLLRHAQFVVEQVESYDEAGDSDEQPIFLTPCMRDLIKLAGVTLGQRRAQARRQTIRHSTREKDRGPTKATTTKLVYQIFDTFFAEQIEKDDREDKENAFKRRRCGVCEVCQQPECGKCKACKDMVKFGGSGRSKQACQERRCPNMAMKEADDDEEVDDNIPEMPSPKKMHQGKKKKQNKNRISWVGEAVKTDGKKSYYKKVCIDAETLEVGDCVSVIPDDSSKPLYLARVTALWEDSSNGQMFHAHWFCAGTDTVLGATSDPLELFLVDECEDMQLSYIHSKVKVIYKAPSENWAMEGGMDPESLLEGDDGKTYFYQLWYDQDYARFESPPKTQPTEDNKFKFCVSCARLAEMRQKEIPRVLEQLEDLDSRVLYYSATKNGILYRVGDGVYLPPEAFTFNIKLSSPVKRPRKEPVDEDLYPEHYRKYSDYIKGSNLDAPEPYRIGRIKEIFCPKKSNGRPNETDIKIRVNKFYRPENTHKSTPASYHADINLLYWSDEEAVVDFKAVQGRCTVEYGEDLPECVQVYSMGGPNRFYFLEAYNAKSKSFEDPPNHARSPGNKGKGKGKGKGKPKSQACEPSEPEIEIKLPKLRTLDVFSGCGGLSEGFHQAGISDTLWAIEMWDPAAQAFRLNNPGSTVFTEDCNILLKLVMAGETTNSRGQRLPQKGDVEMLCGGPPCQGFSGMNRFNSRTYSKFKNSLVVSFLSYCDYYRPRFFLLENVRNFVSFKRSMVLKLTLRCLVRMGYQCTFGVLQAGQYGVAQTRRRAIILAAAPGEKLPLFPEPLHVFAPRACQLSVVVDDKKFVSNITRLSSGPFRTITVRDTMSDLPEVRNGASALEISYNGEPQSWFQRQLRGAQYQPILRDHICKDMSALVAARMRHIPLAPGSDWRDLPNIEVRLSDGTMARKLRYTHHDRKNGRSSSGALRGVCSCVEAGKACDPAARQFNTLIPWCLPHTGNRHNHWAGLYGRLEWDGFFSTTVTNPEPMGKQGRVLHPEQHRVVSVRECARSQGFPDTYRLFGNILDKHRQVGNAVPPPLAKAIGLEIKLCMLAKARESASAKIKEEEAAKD

Row | Compound | IC50
1 | CCOC1=CC(=Cc2c(-c3ccccc3)[nH]n(-c3nc(-c4ccc(Br)cc4)cs3)c2=O)C=CC1=O | 4.35 µM
2 | O=C1N=c2ccccc2=C1NNc1ccc(F)cc1 | 19.3 µM
3 | CCOc1ccc(CN=Nc2ccc(S(=O)(=O)Nc3ccccc3C(=O)O)cc2[N+](=O)[O-])cc1 | 5.78 µM
4 | CCCCn1c(NC(=S)Nc2ccccc2)nc2ccccc21 | 1.02 µM
5 | C=CCOc1ccc(CN=Nc2ccc(S(=O)(=O)Nc3ccccc3C(=O)O)cc2[N+](=O)[O-])cc1OC [2-[[4-[2-[(3-methoxy-4-prop-2-enoxy-phenyl)methylidene]hydrazinyl]-3-nitro-phenyl]sulfonylamino]benzoic acid] | 5.32 µM
6 | COc1cc(NS(=O)(=O)c2ccc(NC(=S)NC(=O)c3sc4ccccc4c3Cl)cc2)nc(OC)n1 [3-chloranyl-N-[[4-[(2,6-dimethoxypyrimidin-4-yl)sulfamoyl]phenyl]carbamothioyl]-1-benzothiophene-2-carboxamide] | 41 µM
7 | NC(=NNC=c1ccc(=C2C=CC(=O)C(C(=O)O)=C2)o1)N[N+](=O)[O-] [5-(5-{2-[amino(nitroimino)methyl]carbonohydrazonoyl}-2-furyl)-2-hydroxybenzoic acid] | 3.94 µM
8 | Cc1[nH]n(-c2ccccc2)c(=O)c1C=C1NC(=S)NC1=O [5-methyl-4-[(Z)-(5-oxo-2-sulfanylideneimidazolidin-4-ylidene)methyl]-2-phenyl-4H-pyrazol-3-one] | 8.39 µM
9 | CC=CC=CC(=O)C1C(=O)[C@]2(C)C(=O)C(C)(O)[C@H]1[C@H]([C@]1(C)OC(=O)C(C)C1=O)[C@H]2C(=O)C=CC=CC (stereo partly drawn) [(1S,4R,6E,7S,8R)-8-[(2E,4E)-hexa-2,4-dienoyl]-2-hydroxy-7-[(2S)-5-hydroxy-2,4-dimethyl-3-oxofuran-2-yl]-6-[(2E,4E)-1-hydroxyhexa-2,4-dienylidene]-2,4-dimethylbicyclo[2.2.2]octane-3,5-dione] | 5.25 µM
10 | COc1ccccc1N1CC=[N+](N[CH-]c2ccc(Cl)c([N+](=O)[O-])c2)CC1 [(E)-1-(4-chloro-3-nitrophenyl)-N-[4-(2-methoxyphenyl)piperazin-1-yl]methanimine] | > 99 µM
11 | Cc1ccc(C(=O)N[n+]2cc(O)[c-](-c3nc(-c4cccc([N+](=O)[O-])c4)cs3)c2N)cc1 [MLS000391743] | > 99 µM
12 | CCN(CC)CCOc1ccc2c(c1)C(N=O)c1cc(OCCN(CC)CC)ccc1-2 [MLS000518859] | > 99 µM
13 | O=C(/C=C/c1ccco1)NCC(=O)NNC1=c2ccccc2=NC1=O [MLS001075666] | 3.25 µM
14 | CSc1ccc(CN=Nc2ccc(S(=O)(=O)Nc3ccccc3C(=O)O)cc2[N+](=O)[O-])cc1 [MLS002245633] | 3.26 µM
15 | COc1ccc(OC)c(-n2c(O)c3o[nH]c(-c4ccccc4Cl)c-3c2=O)c1 [SMR000046218] | 4.35 µM
16 | C=c1[nH]n(-c2cccc(C(=O)O)c2)c(=O)c1=CC=Cc1ccco1 [SMR000113614] | 1.18 µM
17 | COc1ccc(C=c2c(=CSc3ccc(Cl)cc3)[nH]n(-c3nc4ccccc4s3)c2=O)cc1 [SMR000193462] | 2.86 µM
18 | NS(=O)(=O)c1ccc(NN=C2C=CC(=O)NC2=O)cc1 [SMR000528591] | 7.65 µM
19 | O=C(CSc1nc(O)cc(=O)[nH]1)Nc1ccccc1[N+](=O)[O-] [SMR000620617] | 8.51 µM

Source: BindingDB's records for doi:10.7270/Q2NC5ZRN (Burnham Center For Chemical Genomics, 2012)
